Data published in PubChem BioAssay (NCI).
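Each compound was tested at five concentrations against cells in 96-well plates for 48 hours. TGI: concentration producing complete growth inhibition.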

Legend:
Assay in all cases: inhibition of tumour cell growth, NCI panel, 48 h
786-0 renal = tested on: 786-0 renal
A498 renal = tested on: A498 renal
A549 NSCLC = tested on: A549 NSCLC
ACHN renal = tested on: ACHN renal
BT-549 breast = tested on: BT-549 breast
CAKI-1 renal = tested on: CAKI-1 renal
CCRF-CEM leukemia = tested on: CCRF-CEM leukemia
COLO 205 colon = tested on: COLO 205 colon
DU-145 prostate = tested on: DU-145 prostate
EKVX NSCLC = tested on: EKVX NSCLC
HCC-2998 colon = tested on: HCC-2998 colon
HCT-116 colon = tested on: HCT-116 colon
HCT-15 colon = tested on: HCT-15 colon
HL-60(TB) leukemia = tested on: HL-60(TB) leukemia
HOP-62 NSCLC = tested on: HOP-62 NSCLC
HS 578T breast = tested on: HS 578T breast
HT29 colon = tested on: HT29 colon
IGROV1 ovarian = tested on: IGROV1 ovarian
K-562 leukemia = tested on: K-562 leukemia
KM12 colon = tested on: KM12 colon
LOX IMVI melanoma = tested on: LOX IMVI melanoma
M14 melanoma = tested on: M14 melanoma
MALME-3M melanoma = tested on: MALME-3M melanoma
MCF7 breast = tested on: MCF7 breast
MDA-MB-231 breast = tested on: MDA-MB-231 breast
MDA-MB-435 = tested on: MDA-MB-435
MDA-N = tested on: MDA-N
MOLT-4 leukemia = tested on: MOLT-4 leukemia
NCI-H226 lung = tested on: NCI-H226 lung
NCI-H23 lung = tested on: NCI-H23 lung
NCI-H460 lung = tested on: NCI-H460 lung
NCI/ADR-RES ovarian = tested on: NCI/ADR-RES ovarian
OVCAR-3 ovarian = tested on: OVCAR-3 ovarian
OVCAR-4 ovarian = tested on: OVCAR-4 ovarian
OVCAR-5 ovarian = tested on: OVCAR-5 ovarian
OVCAR-8 ovarian = tested on: OVCAR-8 ovarian
PC-3 prostate = tested on: PC-3 prostate
RPMI-8226 leukemia = tested on: RPMI-8226 leukemia
RXF 393 renal = tested on: RXF 393 renal
SF-268 CNS = tested on: SF-268 CNS
SF-295 CNS = tested on: SF-295 CNS
SF-539 CNS = tested on: SF-539 CNS
SK-MEL-2 melanoma = tested on: SK-MEL-2 melanoma
SK-MEL-28 melanoma = tested on: SK-MEL-28 melanoma
SK-MEL-5 melanoma = tested on: SK-MEL-5 melanoma
SK-OV-3 ovarian = tested on: SK-OV-3 ovarian
SN12C renal = tested on: SN12C renal
SNB-19 CNS = tested on: SNB-19 CNS
SNB-75 CNS = tested on: SNB-75 CNS
SW-620 colon = tested on: SW-620 colon
T-47D breast = tested on: T-47D breast
TK-10 renal = tested on: TK-10 renal
U251 CNS = tested on: U251 CNS
UACC-257 melanoma = tested on: UACC-257 melanoma
UACC-62 melanoma = tested on: UACC-62 melanoma
UO-31 renal = tested on: UO-31 renal
HOP-92 NSCLC = tested on: HOP-92 NSCLC
NCI-H522 lung = tested on: NCI-H522 lung
SR leukemia = tested on: SR leukemia

## COc1ccccc1NC(=S)Nc1cc(C)cc(C)n1
786-0 renal
  TGI: > 100 µM
A498 renal
  TGI: > 100 µM
A549 NSCLC
  TGI: > 100 µM
ACHN renal
  TGI: > 100 µM
BT-549 breast
  TGI: > 100 µM
CAKI-1 renal
  TGI: > 100 µM
CCRF-CEM leukemia
  TGI: > 100 µM
COLO 205 colon
  TGI: > 100 µM
DU-145 prostate
  TGI: > 100 µM
EKVX NSCLC
  TGI: > 100 µM
HCC-2998 colon
  TGI: > 100 µM
HCT-116 colon
  TGI: > 100 µM
HCT-15 colon
  TGI: > 100 µM
HL-60(TB) leukemia
  TGI: > 100 µM
HOP-62 NSCLC
  TGI: > 100 µM
HS 578T breast
  TGI: > 100 µM
HT29 colon
  TGI: > 100 µM
IGROV1 ovarian
  TGI: > 100 µM
K-562 leukemia
  TGI: > 100 µM
KM12 colon
  TGI: > 100 µM
LOX IMVI melanoma
  TGI: > 100 µM
M14 melanoma
  TGI: > 100 µM
MALME-3M melanoma
  TGI: > 100 µM
MCF7 breast
  TGI: > 100 µM
MDA-MB-231 breast
  TGI: > 100 µM
MDA-MB-435
  TGI: > 100 µM
MDA-N
  TGI: > 100 µM
MOLT-4 leukemia
  TGI: > 100 µM
NCI-H226 lung
  TGI: > 100 µM
NCI-H23 lung
  TGI: > 100 µM
NCI-H460 lung
  TGI: > 100 µM
NCI/ADR-RES ovarian
  TGI: > 100 µM
OVCAR-3 ovarian
  TGI: > 100 µM
OVCAR-4 ovarian
  TGI: > 100 µM
OVCAR-5 ovarian
  TGI: > 100 µM
OVCAR-8 ovarian
  TGI: > 100 µM
PC-3 prostate
  TGI: > 100 µM
RPMI-8226 leukemia
  TGI: > 100 µM
RXF 393 renal
  TGI: > 100 µM
SF-268 CNS
  TGI: > 100 µM
SF-295 CNS
  TGI: > 100 µM
SF-539 CNS
  TGI: > 100 µM
SK-MEL-2 melanoma
  TGI: > 100 µM
SK-MEL-28 melanoma
  TGI: > 100 µM
SK-MEL-5 melanoma
  TGI: > 100 µM
SK-OV-3 ovarian
  TGI: > 100 µM
SN12C renal
  TGI: > 100 µM
SNB-19 CNS
  TGI: > 100 µM
SNB-75 CNS
  TGI: > 100 µM
SW-620 colon
  TGI: > 100 µM
T-47D breast
  TGI: > 100 µM
TK-10 renal
  TGI: > 100 µM
U251 CNS
  TGI: > 100 µM
UACC-257 melanoma
  TGI: > 100 µM
UACC-62 melanoma
  TGI: > 100 µM
UO-31 renal
  TGI: > 100 µM

## C/C(Cl)=N/OC(=O)Nc1ccc(S(N)(=O)=O)c(C)c1
786-0 renal
  TGI: 4.29 µM
A498 renal
  TGI: 41.3 µM
A549 NSCLC
  TGI: 38.3 µM
ACHN renal
  TGI: 5.37 µM
BT-549 breast
  TGI: 25.1 µM
CAKI-1 renal
  TGI: 3.23 µM
CCRF-CEM leukemia
  TGI: 3.99 µM
COLO 205 colon
  TGI: 4.14 µM
DU-145 prostate
  TGI: 30.5 µM
EKVX NSCLC
  TGI: 13 µM
HCC-2998 colon
  TGI: 32.7 µM
HCT-116 colon
  TGI: 25 µM
HCT-15 colon
  TGI: 3.86 µM
HL-60(TB) leukemia
  TGI: 3.05 µM
HOP-62 NSCLC
  TGI: 34.9 µM
HOP-92 NSCLC
  TGI: 4.7 µM
HS 578T breast
  TGI: > 79.4 µM
HT29 colon
  TGI: > 77.7 µM
IGROV1 ovarian
  TGI: 33.4 µM
K-562 leukemia
  TGI: 3.35 µM
KM12 colon
  TGI: 41.2 µM
LOX IMVI melanoma
  TGI: 6.19 µM
M14 melanoma
  TGI: 25.2 µM
MALME-3M melanoma
  TGI: 4.5 µM
MCF7 breast
  TGI: 29.1 µM
MDA-MB-231 breast
  TGI: 22 µM
MDA-MB-435
  TGI: 29.6 µM
MDA-N
  TGI: 24.4 µM
MOLT-4 leukemia
  TGI: 6.12 µM
NCI-H226 lung
  TGI: 47.6 µM
NCI-H23 lung
  TGI: 39.3 µM
NCI-H460 lung
  TGI: > 100 µM
NCI-H522 lung
  TGI: 3.45 µM
NCI/ADR-RES ovarian
  TGI: > 55.5 µM
OVCAR-3 ovarian
  TGI: 8.9 µM
OVCAR-4 ovarian
  TGI: 29.3 µM
OVCAR-5 ovarian
  TGI: 34.4 µM
OVCAR-8 ovarian
  TGI: > 56.2 µM
PC-3 prostate
  TGI: 32.3 µM
RPMI-8226 leukemia
  TGI: 6.49 µM
RXF 393 renal
  TGI: 31.9 µM
SF-268 CNS
  TGI: > 61.3 µM
SF-295 CNS
  TGI: 45.3 µM
SK-MEL-2 melanoma
  TGI: 33.5 µM
SK-MEL-28 melanoma
  TGI: 30.6 µM
SK-MEL-5 melanoma
  TGI: 26.1 µM
SK-OV-3 ovarian
  TGI: > 58.3 µM
SN12C renal
  TGI: 26.8 µM
SNB-19 CNS
  TGI: 32.3 µM
SNB-75 CNS
  TGI: 34.2 µM
SW-620 colon
  TGI: 3.27 µM
T-47D breast
  TGI: 9.98 µM
TK-10 renal
  TGI: 17.9 µM
U251 CNS
  TGI: 33.7 µM
UACC-257 melanoma
  TGI: 27.9 µM
UACC-62 melanoma
  TGI: 35.6 µM
UO-31 renal
  TGI: 28.1 µM

## O=C(O)COCC(=O)N(CCOCCN(Cc1ccccc1)C(=O)COCC(=O)O)Cc1ccccc1
786-0 renal
  TGI: > 100 µM
A498 renal
  TGI: > 100 µM
A549 NSCLC
  TGI: > 100 µM
ACHN renal
  TGI: > 100 µM
BT-549 breast
  TGI: > 100 µM
CAKI-1 renal
  TGI: > 100 µM
CCRF-CEM leukemia
  TGI: > 100 µM
COLO 205 colon
  TGI: > 100 µM
DU-145 prostate
  TGI: > 100 µM
EKVX NSCLC
  TGI: > 100 µM
HCC-2998 colon
  TGI: > 100 µM
HCT-116 colon
  TGI: > 100 µM
HCT-15 colon
  TGI: > 100 µM
HL-60(TB) leukemia
  TGI: > 100 µM
HOP-62 NSCLC
  TGI: > 100 µM
HOP-92 NSCLC
  TGI: > 100 µM
HS 578T breast
  TGI: > 100 µM
HT29 colon
  TGI: > 100 µM
IGROV1 ovarian
  TGI: > 100 µM
K-562 leukemia
  TGI: > 100 µM
KM12 colon
  TGI: > 100 µM
LOX IMVI melanoma
  TGI: > 100 µM
M14 melanoma
  TGI: > 100 µM
MALME-3M melanoma
  TGI: > 100 µM
MCF7 breast
  TGI: > 100 µM
MDA-MB-231 breast
  TGI: > 100 µM
MDA-MB-435
  TGI: > 100 µM
MDA-N
  TGI: > 100 µM
MOLT-4 leukemia
  TGI: > 100 µM
NCI-H226 lung
  TGI: > 100 µM
NCI-H23 lung
  TGI: > 100 µM
NCI-H460 lung
  TGI: > 100 µM
NCI-H522 lung
  TGI: > 100 µM
NCI/ADR-RES ovarian
  TGI: > 100 µM
OVCAR-3 ovarian
  TGI: > 100 µM
OVCAR-5 ovarian
  TGI: > 100 µM
OVCAR-8 ovarian
  TGI: > 100 µM
PC-3 prostate
  TGI: > 100 µM
RPMI-8226 leukemia
  TGI: > 100 µM
RXF 393 renal
  TGI: > 100 µM
SF-268 CNS
  TGI: > 100 µM
SF-295 CNS
  TGI: > 100 µM
SF-539 CNS
  TGI: > 100 µM
SK-MEL-2 melanoma
  TGI: > 100 µM
SK-MEL-28 melanoma
  TGI: > 100 µM
SK-MEL-5 melanoma
  TGI: > 100 µM
SK-OV-3 ovarian
  TGI: > 100 µM
SN12C renal
  TGI: > 100 µM
SNB-19 CNS
  TGI: > 100 µM
SR leukemia
  TGI: > 100 µM
SW-620 colon
  TGI: > 100 µM
T-47D breast
  TGI: > 100 µM
TK-10 renal
  TGI: > 100 µM
U251 CNS
  TGI: > 100 µM
UACC-257 melanoma
  TGI: > 100 µM
UACC-62 melanoma
  TGI: > 100 µM
